Source: PMC6696278 (International Journal of Molecular Sciences, 2019)

How the values were obtained:
Format in all cases: binding
human galectin-2 = biological target: T1, human galectin-2 (Homo sapiens, UniProt P05162); experiment: competitive fluorescence polarization assay, galectin-2; conditions: Table 2; average and SEM; PBS
T1 construct: made in house
T1 sequence (P05162 1-132): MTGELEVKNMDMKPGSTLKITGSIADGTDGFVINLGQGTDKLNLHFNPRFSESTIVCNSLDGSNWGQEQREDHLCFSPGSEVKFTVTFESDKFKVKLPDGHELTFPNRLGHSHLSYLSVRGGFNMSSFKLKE
From the text: (§1) Human galectin-1 [25], galectin-2 [26], galectin-3 [27], galectin-4N [19], galectin-4C [19], galectin-8N [28], galectin-8C [28], galectin-9N [29], and galectin-9C [30], were expressed and purified as described earlier. Human galectin-7 was expressed using a pET3c plasmid in E. coli BL21-star. The plasmid containing expression optimized DNA encoding the full human galectin-7 sequence (NCBI Reference Sequence: NP_002298.1) was obtained from GenScript (Piscataway, NJ, USA). Bacterial culture and induction, and galectin purification was essential as described for galectin-3 expressed with the same vector [27]; a typical yield was 1.5–2 mg/L culture. Lactose was removed by chromatography on a PD-10 column (Amersham Biosciences) with repeated ultrafiltration with Centriprep (Amicon).
(§2) Fluorescence polarization experiments were carried out either with a POLARStar plate reader and FLUOstar Galaxy software or with a PheraStarFS plate reader and PHERAstar Mars version 2.10 R3 software (BMG, Offenburg, Germany). The dissociation constant (Kd) values were determined in PBS as described earlier. Specific conditions for galectin-1, 2, 3, 4N, 4C, 8N, 8C, 9N, and 9C were kept as reported. Experiments were performed at room temperature with human galectin-7 at 5 µM and the fluorescent probe β-D-galactopyranosyl-(1–4)-2-acetamido-2-deoxy-β-d-glucopyranosyl-(1–3)-β-d-galactopyranosyl-(1–4)-(N1-fluorescein-5-yl-carbonylaminomethylcarbonyl)-β-D-glucopyranosylamine at 0.02 µM. All the compounds in Table 1 except 32 were dissolved in a neat DMSO at 100 mM and diluted in PBS to three to six different concentrations to be tested in duplicate.

human galectin-7 = biological target: T2, human galectin-7 (Homo sapiens, UniProt P47929); experiment: competitive fluorescence polarization assay, galectin-7; conditions: Table 2; average and SEM; PBS, room temperature, galectin-7 at 5 µM, probe 0.02 µM
T2 construct: made in house; host or cells: E. coli BL21-star, pET3c plasmid (DNA from GenScript)
T2 sequence (P47929 whole entry): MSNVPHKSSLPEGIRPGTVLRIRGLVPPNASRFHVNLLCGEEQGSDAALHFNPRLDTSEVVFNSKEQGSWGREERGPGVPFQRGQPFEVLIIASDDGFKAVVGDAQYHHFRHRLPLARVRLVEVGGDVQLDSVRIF
From the text: as §1, §2

[1] = biological target: T3, human galectin-9C (C-terminal domain) (Homo sapiens, UniProt O00182); experiment: competitive fluorescence polarization assay, galectin-9C; conditions: Table 2, average and SEM, PBS
T3 construct: 4N (N-terminal domain) 4C (C-terminal domain), 7, 8N, 8C, 9N, and 9C; made in house
T3 sequence (O00182 227-355 limits assumed): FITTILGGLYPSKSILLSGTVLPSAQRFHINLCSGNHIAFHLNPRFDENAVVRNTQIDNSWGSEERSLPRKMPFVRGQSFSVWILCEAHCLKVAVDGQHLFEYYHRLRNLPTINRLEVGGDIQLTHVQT
From the text: as §1, with “Bacterial culture and induction, and galectin purification was essential as described for galectin-3 expressed with the same vector [27]; a typical yield was 1.5–2 mg/L culture.” left out
as §2

human galectin-1 = biological target: T4, human galectin-1 (Homo sapiens, UniProt P09382); experiment: competitive fluorescence polarization assay, galectin-1; conditions: for Kd: Table 2, average and SEM of 4–8 single-triple point measurements, PBS
T4 construct: made in house
T4 sequence (P09382 whole entry): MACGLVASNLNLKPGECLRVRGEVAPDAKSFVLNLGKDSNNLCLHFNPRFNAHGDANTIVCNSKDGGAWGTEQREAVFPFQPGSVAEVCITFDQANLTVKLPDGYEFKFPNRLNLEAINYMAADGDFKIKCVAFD
From the text: as §1, with “Bacterial culture and induction, and galectin purification was essential as described for galectin-3 expressed with the same vector [27]; a typical yield was 1.5–2 mg/L culture.” left out
as §2

human galectin-3 = biological target: T5, human galectin-3 (Homo sapiens, UniProt P17931); experiment: competitive fluorescence polarization assay, galectin-3; conditions: Table 2; average and SEM; PBS
T5 construct: made in house; host or cells: vector pET3c (the same vector as galectin-7)
T5 sequence (P17931 whole entry): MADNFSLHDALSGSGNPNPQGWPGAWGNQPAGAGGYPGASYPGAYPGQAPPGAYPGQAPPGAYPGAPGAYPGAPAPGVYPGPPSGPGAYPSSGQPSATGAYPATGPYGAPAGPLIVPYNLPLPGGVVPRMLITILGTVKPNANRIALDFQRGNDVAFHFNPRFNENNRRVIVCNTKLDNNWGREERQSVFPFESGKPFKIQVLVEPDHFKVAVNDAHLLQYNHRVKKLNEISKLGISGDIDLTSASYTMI
From the text: as §1, with “Bacterial culture and induction, and galectin purification was essential as described for galectin-3 expressed with the same vector [27]; a typical yield was 1.5–2 mg/L culture.” left out
as §2

[2] = biological target: T6, human galectin-4N (N-terminal domain) (Homo sapiens, UniProt P56470); experiment: competitive fluorescence polarization assay, galectin-4N; conditions: Table 2; N-terminal domain; average and SEM; PBS
T6 construct: 4N (N-terminal domain) 4C (C-terminal domain); made in house
T6 sequence (P56470 19-150 limits assumed): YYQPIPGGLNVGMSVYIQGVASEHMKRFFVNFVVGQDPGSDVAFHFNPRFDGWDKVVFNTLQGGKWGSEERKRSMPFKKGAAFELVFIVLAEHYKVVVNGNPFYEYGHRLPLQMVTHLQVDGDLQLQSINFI
From the text: as §1, §2

[3] = biological target: T7, human galectin-4C (C-terminal domain) (Homo sapiens, UniProt P56470); experiment: competitive fluorescence polarization assay, galectin-4C; conditions: Table 2, average and SEM, PBS
T7 construct: 4N (N-terminal domain) 4C (C-terminal domain); made in house
T7 sequence (P56470 194-323 limits assumed): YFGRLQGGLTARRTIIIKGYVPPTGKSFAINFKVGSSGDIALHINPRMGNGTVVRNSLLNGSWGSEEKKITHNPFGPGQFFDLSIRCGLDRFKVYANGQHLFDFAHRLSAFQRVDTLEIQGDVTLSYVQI
From the text: as §1, with “Bacterial culture and induction, and galectin purification was essential as described for galectin-3 expressed with the same vector [27]; a typical yield was 1.5–2 mg/L culture.” left out
as §2

[4] = biological target: T8, human galectin-8N (N-terminal domain) (Homo sapiens, UniProt O00214); experiment: competitive fluorescence polarization assay, galectin-8N; conditions: Table 2, average and SEM, PBS
T8 construct: 4N (N-terminal domain) 4C (C-terminal domain), 7, 8N, 8C, 9N, and 9C; made in house
T8 sequence (O00214 19-152 limits assumed): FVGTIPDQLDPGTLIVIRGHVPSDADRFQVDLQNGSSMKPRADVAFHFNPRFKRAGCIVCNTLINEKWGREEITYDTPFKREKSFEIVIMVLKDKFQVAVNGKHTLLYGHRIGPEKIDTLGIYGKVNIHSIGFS
From the text: as §1, with “Bacterial culture and induction, and galectin purification was essential as described for galectin-3 expressed with the same vector [27]; a typical yield was 1.5–2 mg/L culture.” left out
as §2

[5] = biological target: T9, human galectin-8C (C-terminal domain) (Homo sapiens, UniProt O00214); experiment: competitive fluorescence polarization assay, galectin-8C; conditions: Table 2, average and SEM, PBS
T9 construct: 4N (N-terminal domain) 4C (C-terminal domain), 7, 8N, 8C, 9N, and 9C; made in house
T9 sequence (O00214 187-317 limits assumed): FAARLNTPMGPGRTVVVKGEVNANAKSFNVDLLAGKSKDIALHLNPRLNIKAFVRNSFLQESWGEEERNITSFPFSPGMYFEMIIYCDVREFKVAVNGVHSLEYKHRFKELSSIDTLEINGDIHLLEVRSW
From the text: as §1, with “Bacterial culture and induction, and galectin purification was essential as described for galectin-3 expressed with the same vector [27]; a typical yield was 1.5–2 mg/L culture.” left out
as §2

[6] = biological target: T10, human galectin-9N (N-terminal domain) (Homo sapiens, UniProt O00182); experiment: competitive fluorescence polarization assay, galectin-9N; conditions: Table 2, average and SEM, PBS
T10 construct: 4N (N-terminal domain) 4C (C-terminal domain), 7, 8N, 8C, 9N, and 9C; made in house
T10 sequence (O00182 17-148 limits assumed): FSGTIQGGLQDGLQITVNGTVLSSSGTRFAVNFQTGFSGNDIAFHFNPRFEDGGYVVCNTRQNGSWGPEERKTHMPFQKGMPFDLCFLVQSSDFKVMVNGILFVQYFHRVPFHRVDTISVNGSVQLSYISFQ
From the text: as §1, §2

Structure (SMILES) | Kd (human galectin-2) | Kd (human galectin-7) | Kd [1] | Kd (human galectin-1) | Kd (human galectin-3) | Kd [2] | Kd [3] | Kd [4] | Kd [5] | Kd [6] | fold better affinity for galectin-1 than reference methyl β-D-galactopyranoside 32 (human galectin-1; ratio of Kd values) | binding to galectin-1 (in words) (human galectin-1; under the assay conditions)
CO[C@@H]1O[C@H](CO)[C@H](O)[C@H](CNC(=O)c2ccc(F)cc2)[C@H]1O [Compound 7e, Methyl 3-Deoxy-3-C-(4-Fluorobenzamidomethyl)-β-D-Galactopyranoside] | > 4 mM | > 4 mM | > 4 mM | 1.7 ± 0.06 mM | 1.6 ± 0.03 mM | 1.7 ± 0.07 mM | > 4 mM | > 4 mM | > 4 mM | > 4 mM | – | –
CO[C@@H]1O[C@H](CO)[C@H](O)[C@H](CNC(=O)c2cc(F)c(F)c(F)c2)[C@H]1O [Compound 7f, Methyl 3-Deoxy-3-C-(3,4,5-Trifluorobenzamidomethyl)-β-D-Galactopyranoside] | > 4 mM | > 4 mM | > 4 mM | 2.5 ± 0.4 mM | > 4 mM | > 4 mM | > 4 mM | > 4 mM | > 4 mM | > 4 mM | – | –
COc1cccc(C(=O)NC[C@H]2[C@@H](O)[C@@H](CO)O[C@@H](OC)[C@@H]2O)c1 [Compound 7h, Methyl 3-Deoxy-3-C-(3-Methoxybenzamidomethyl)-β-D-Galactopyranoside] | > 4 mM | > 4 mM | > 4 mM | 3.2 ± 0.5 mM | > 4 mM | > 4 mM | > 4 mM | > 4 mM | > 4 mM | > 4 mM | – | –
CO[C@@H]1O[C@H](CO)[C@H](O)[C@H](CNC(=O)c2cccc(C(F)(F)F)c2)[C@H]1O [Compound 7k, Methyl 3-Deoxy-3-C-(3-Trifluoromethylbenzamidomethyl)-β-D-Galactopyranoside] | > 4 mM | > 4 mM | > 4 mM | 1.8 ± 0.07 mM | > 4 mM | 1.9 ± 0.1 mM | > 4 mM | > 4 mM | > 4 mM | > 4 mM | – | –
CO[C@@H]1O[C@H](CO)[C@H](O)[C@H](CNC(=O)c2ccc(-c3ccccc3)cc2)[C@H]1O [Compound 7l, Methyl 3-Deoxy-3-C-(4-Phenylbenzamidomethyl)-β-D-Galactopyranoside] | > 4 mM | > 4 mM | > 4 mM | > 4 mM | > 4 mM | > 4 mM | > 4 mM | > 4 mM | > 4 mM | > 4 mM | – | did not bind

The next lines start with the values.

Kd (human galectin-2) | Kd (human galectin-7) | Kd [1] | Kd (human galectin-1) | Kd (human galectin-3) | Kd [2] | Kd [3] | Kd [4] | Kd [5] | Kd [6] | fold better affinity for galectin-1 than reference methyl β-D-galactopyranoside 32 (human galectin-1; ratio of Kd values) | binding to galectin-1 (in words) (human galectin-1; under the assay conditions) | Structure (SMILES)
> 4 mM | > 4 mM | > 4 mM | 0.7 ± 0.005 mM | > 4 mM | > 4 mM | > 4 mM | > 4 mM | > 4 mM | > 4 mM | 14 fold | – | CO[C@@H]1O[C@H](CO)[C@H](O)[C@H](CNC(=O)c2c(F)c(F)c(F)c(F)c2F)[C@H]1O [Compound 7g, Methyl 3-Deoxy-3-C-(2,3,4,5,6-Pentafluorobenzamidomethyl)-β-D-Galactopyranoside]
> 4 mM | > 4 mM | > 4 mM | 2.3 ± 0.4 mM | > 4 mM | > 4 mM | > 4 mM | > 4 mM | > 4 mM | > 4 mM | – | – | CO[C@@H]1O[C@H](CO)[C@H](O)[C@H](CNC(=O)c2ccc(C)cc2)[C@H]1O [Compound 7i, Methyl 3-Deoxy-3-C-(p-Toluamidomethyl)-β-D-Galactopyranoside]
> 4 mM | > 4 mM | > 4 mM | 1.8 ± 0.04 mM | > 4 mM | 2 ± 0.4 mM | > 4 mM | > 4 mM | 2.6 ± 0.6 mM | > 4 mM | – | – | COc1cc(OC)cc(C(=O)NC[C@H]2[C@@H](O)[C@@H](CO)O[C@@H](OC)[C@@H]2O)c1 [Compound 7j, Methyl 3-Deoxy-3-C-(3,5-Dimethoxybenzamidomethyl)-β-D-Galactopyranoside]
